Regarding `COc1nc(-c2ccccc2Cl)c2ccsc2n1`, the melting point – broadly, the temperature of the solid-liquid transition – is 172 to 174 °C. Turning to `CCOC(=O)C(C#N)=Cc1ccc([N+](=O)[O-])cc1C`, the melting point lay in the range of 180 to 210 °C. Turning to `C[C@@H](Cn1ncc2ccc(O)c(Br)c21)O[Si](C)(C)C(C)(C)C`, the melting point was 103 to 105 °C. In turn, `OC1CSC(Oc2cccc(-c3ccncc3Cl)c2)C(O)C1O` (stereo not drawn) returned a melting point of 158 to 161 °C. `O=C(O)CCON=c1c2nccc3cccc(c32)n2cccc12` displayed a melting point of 250 °C. The value for `Oc1ccc2c(c1)COc1c-2cc2ccc(O)cc2c1-c1ccccc1F` was 240 to 242 °C; that for `CC(C)NC(=O)N1c2ccc(S(=O)(=O)n3cc(-c4ccccc4)[nH]c3=O)cc2CC1C` (stereo not drawn) was 154 to 156 °C; that for `CC(=NN(C1=NNC(=O)CC1)c1ccccc1)c1ccccc1` was 176 to 178 °C.

With `CC1=NN(c2ccccc2)C(=O)C1C(=O)Nc1ccc(O)cc1` (stereo not drawn), the melting point was in the range of 135 to 140 °C. Consider `CCCSCc1cccc(-c2nc(=O)c3ccccc3s2)n1`, for which the melting point lay in the range of 112 to 113 °C.

For `C=CCc1c(O)nc(N)nc1O`, the melting point was greater than 250 °C.

In turn, `COC(=O)c1cc(O)c2ccc(OCc3ccccc3)cc2c1` showed a melting point of 179 to 180 °C. `CCOC(=O)C=Cc1ccc(-c2ccccc2)cc1` displayed a melting point of 88.6 °C. `Cc1nc(N2CCN(Cc3ccccc3)C2=O)sc1C(=O)NCc1ccc(F)cc1F`: the melting point was 157 to 158 °C. The value for `CCOc1nc(OCC)nc(N2CCN(C=O)CC2)n1` was 106 to 108 °C. The value for `O=C(c1ccccc1)c1cnn2c(-c3ccncc3)ccnc12` was 185 to 186 °C; that for `CCC(O)(c1ccc(OCCN(C)C)cc1)c1cccc(C(F)(F)F)c1` (stereo not drawn) was 69 to 70 °C. As for `CCOC(=O)Cc1nc(-c2ccc(Cl)cc2)oc1Oc1cc(C)ccc1C`, the melting point was 122 to 124 °C. In turn, `CCCCc1nn(C(CC)c2ccccc2)c(=O)n1Cc1ccc(-c2ccccc2-c2nnn[nH]2)cc1` (stereo not drawn) yielded a melting point of 72 to 75 °C. The compound `O=C(Nc1cccc([N+](=O)[O-])c1)C(F)(F)C(F)(F)F` yielded a melting point of 111 to 113 °C. `CCCCCCCCCCCCCCCCCCCC(=O)Nc1ccn(C2OC(CO)C(O)C2O)c(=O)n1` (stereo not drawn): the melting point fell in the range of 138 to 142 °C.

The compound `COc1ccc(CNc2n[nH]c3ncnc(Nc4cccc(Cl)c4)c23)cc1` came in with a melting point of 222 to 223 °C. Consider `C=CC(=O)Oc1ccc(N2C(=O)C(=C(C)C)/C(=C(/C)c3cc(C)oc3C)C2=O)cc1`, for which the melting point is 157 to 158 °C.

Compound `O=C(O)C(c1ccc([N+](=O)[O-])cc1)N1CCCC1` (stereo not drawn) displayed a melting point of 103 to 105 °C. As for `COC(=O)CCNC(=O)c1ccc2c(c1)nc(-c1ccc(C(=N)N)cc1)n2CCC(c1ccccc1)c1ccccc1`, the melting point was greater than 200 °C.

Regarding `Clc1cc(Cl)n2ncc(Br)c2n1`, the melting point fell in the range of 73 to 75 °C.

Compound `CCCCCCCCC1C(=O)NC(=O)N1CCCCCCC(=O)O` (stereo not drawn) had a melting point of 65 to 66 °C. `O=C(CF)CS(=O)(=O)C(c1ccc(Cl)cc1)c1ccc(Cl)cc1`: the melting point fell in the range of 55 to 58 °C. The compound `CCCC1=C(O)C(C(=O)CC)C(=O)OC1=O` (stereo not drawn) had a melting point of 149 to 150 °C. In turn, `COc1ccc(-c2nc(C(=O)N3CCN(C(=O)NC(C)C)CC3)sc2-c2ccc(OC)cc2)cc1` returned a melting point of 157 to 159 °C. `COc1ccc2[nH]c(C)c(C3CN4CCC3CC4)c2c1` (stereo not drawn) returned a melting point of 232 to 234 °C. On to `O=C(Cc1c[nH]cn1)NC(P(=O)(O)O)P(=O)(O)O`, for which the melting point was in the range of 247 to 250 °C. The value for `CC(COc1ccc(O)c(C(N)=O)c1)NCC(O)c1ccccn1` (stereo not drawn) was 147 to 165 °C.

`CCCCc1oc2ccccc2c1C(O)c1ccc(-c2ccc(O)cc2)cc1` (stereo not drawn): the melting point was 47 to 49 °C. The result for `O=C(OCc1ccccc1)c1ccc(Br)c(OCc2ccccc2)c1` reads 80.5 to 81.5 °C; that for `COc1ccc(-c2ccnn2-c2ccc(N3C[C@H](CNC(C)=O)OC3=O)cc2F)cc1OC`, 154 to 156 °C. Compound `CSCCC(C)NC(=O)c1c(I)cccc1C(=O)O` (stereo not drawn) displayed a melting point of 148 to 150 °C.

For `Cc1cn(C(C)(C)C(=O)N(C)C)nc1-c1cc(Cl)ccc1Cl`, the melting point amounted to 130 °C. As to `CCNc1cccc(NC(=O)C(=O)OCC)c1C#N`, the melting point was 99 to 102 °C.

Compound `COc1ccc(C(=O)c2c(C)n(C(C)=O)c(=O)n2C(C)=O)cc1` showed a melting point of 123 to 125 °C.

`O=c1c(I)c(OCc2ccc(F)cc2F)ccn1Cc1cccc(F)c1` had a melting point of 164 to 167 °C. In the case of `CC1(C)Nc2nc(Cl)ccc2NC1=O`, the melting point stood at 229 °C.

In turn, `O=C1CCC(n2nc(-c3c(-c4ccccc4)nn4ccccc34)ccc2=O)CC1` gave a melting point of 138 to 140 °C. `COc1ccc(C2(/C=C/c3cccc(C#N)c3)CCC(=O)CC2)cc1OC1CCCC1` yielded a melting point of 116 to 117 °C.

For `COC(=O)CCCCCOc1ccc(NC(=O)COCc2ccccc2)cc1`, the melting point fell in the range of 46 to 49 °C.

On to `NS(=O)(=O)Oc1cccc([N+](=O)[O-])c1`, for which the melting point fell in the range of 118 to 120 °C. On to `CC(C)N1C(=O)N(c2ccc(C#N)c(C(F)(F)F)c2)C(=O)C1(CF)CF`, for which the melting point was 153 to 154 °C. The result for `O=C(NC1CCC(CCN2CCN(c3nccc4c3OCC4)CC2)CC1)C1CCOC1` (stereo not drawn) reads 195 °C. Consider `Clc1nnc(CN2CC3(COc4cc5c(cc43)OCO5)c3ccccc32)s1` (stereo not drawn), for which the melting point was 194 to 197 °C.

Compound `COC(=O)c1cc(OCc2ccccc2)c(OCc2ccccc2)c(OCc2ccccc2)c1` gave a melting point of 102 to 103 °C.

With `O=C(Nc1ccc(C(=O)N2Cc3ccccc3Cc3ccccc32)cc1)C1CC=CCC1` (stereo not drawn), the melting point was in the range of 234 to 236 °C. As for `CCOC(=O)[C@H](CNC(=O)OC(C)(C)C)NS(=O)(=O)N(C)C`, the melting point was 65 to 67 °C. In turn, `Cc1ccc(-c2nc(Cc3cccc(C=O)c3)c(C)o2)cc1` yielded a melting point of 98 to 99 °C. With `CC(C)N(Cc1ccccc1)CC(O)COc1cccc2[nH]cc(C=O)c12` (stereo not drawn), the melting point lay in the range of 107 to 109 °C.

Consider `CC(=O)CC1(C(=O)c2ccc([N+](=O)[O-])cc2)C=CC(Cl)=C(Cl)C1` (stereo not drawn), for which the melting point fell in the range of 121 to 122 °C. `CCOCc1nc2c(N)nc3cc(Br)ccc3c2n1CC1CCN(S(C)(=O)=O)CC1` had a melting point of 233 to 234 °C. Turning to `O=C(SCCCN1C(=O)NCC1c1ccccc1)c1ccccc1` (stereo not drawn), the melting point was in the range of 112 to 115 °C. Take `Cc1ncsc1C(O)c1ccoc1` (stereo not drawn): the melting point was 44 to 46 °C. As for `Oc1ccc2c(c1)C=CC=CS2`, the melting point was 165 to 166 °C.

In turn, `CCN(CC)CCNC(=O)c1cc(Cl)c(N)cc1OCCC(C)OC` (stereo not drawn) had a melting point of 76 to 78 °C. `CCCCOC(=O)n1nc(-c2cccc(Br)c2)ccc1=O` displayed a melting point of 126 to 129 °C.

With `CCOC(=O)C1=C2NCCN2C(C)=C(C(=O)OC)C1c1ccccc1[N+](=O)[O-]` (stereo not drawn), the melting point is 185 °C.

Compound `CC(C)(COC(=O)c1cc(Cl)c(O)c(Cl)c1)Cc1ccc(CC(C)(C)COC(=O)c2cc(Cl)c(O)c(Cl)c2)cc1` gave a melting point of 203 to 204 °C. The result for `CC(C)c1cccc(C(C)C)c1NC(=O)c1ccccc1N` reads 207 to 209 °C.

`COc1ccc(CCNc2cc(-c3ccco3)nc(-c3nccs3)n2)cc1OC` yielded a melting point of 83 to 83.8 °C. For the compound `C=CCNc1nc(N2CCc3ccccc3CC2)c(C#N)c(=O)n1CC=C`, the melting point is 181 to 182 °C. Regarding `NC(=O)CCC(=O)Nc1c(C(=O)c2ccccc2)[nH]c2cc(Cl)ccc12`, the melting point is 258 to 263 °C. The result for `O=C(c1ccccc1)c1ccc2cc[nH]c2n1` reads 174 °C; that for `CCC(=O)NCCC1CCc2ccc3c(c21)OCO3` (stereo not drawn), 102 to 104 °C.

Turning to `Cc1ccc(N2CCc3ccccc32)c([N+](=O)[O-])c1`, the melting point lay within 93 to 95 °C. `c1ccc(-c2nn3c(c2-c2cccc4nsnc24)CCC3)nc1` gave a melting point of 140 to 142 °C. The compound `COCCOc1ccc2ccc(NC(=O)c3ccc(OC)cc3)nc2n1` came in with a melting point of 114 °C. Compound `O=C(O)c1c(CNS(=O)(=O)c2cccc(Cl)c2)nn(-c2ccc(Cl)cc2Cl)c1-c1ccc(Cl)cc1` registered a melting point of 211 °C.

For `C=CCc1ccc2c(c1O)CCC(=O)N2c1ccccc1`, the melting point is 177 to 178 °C.

On to `Cc1c(OCC(F)(F)F)ccnc1CS(=O)c1nc2ccccc2n1NCC(C)C` (stereo not drawn), for which the melting point is 129 to 131 °C. Consider `O=c1[nH]cccc1CO`, for which the melting point was 203 to 205 °C. For `CN(C)c1cccc(C(=O)N2CCC3(CC2)CSC2=C(O3)c3ccccc3C(=O)C2=O)c1`, the melting point is 170 to 172 °C. Turning to `O=C(NCCCn1ccnc1)c1ccoc1`, the melting point fell in the range of 127 to 129 °C. The value for `O=C(O)Cc1ccc(NC(=O)C(COc2ccc(Cl)cc2)NS(=O)(=O)c2ccc(I)cc2)cc1` (racemic) was 196 to 198 °C; that for `CCCCCCCCC[C@]1(C)OO[C@@H]2C[C@H]1CC(=O)[C@@H]2C` was 39 °C; that for `O=C1C(c2ccccc2)=C(c2ccccc2)C(=O)N1c1ccccc1C(F)(F)F` was 152 to 153 °C.

On to `O=C(O)Cc1ccccc1OCCCc1cn(-c2ccc(C(F)(F)F)cn2)nc1C1CCCCC1`, for which the melting point was 127 to 128 °C.

In turn, `COc1ccc2nc(CN(CCN(Cc3ccc4cc(OC)ccc4n3)Cc3ccc4cc(OC)ccc4n3)Cc3ccc4cc(OC)ccc4n3)ccc2c1` yielded a melting point of 168 to 170 °C.

Turning to `CCN1CCCC(CC)(c2ccc(Nc3ncc4ccc(-c5ccccc5OC)n4n3)cc2)C1` (stereo not drawn), the melting point fell in the range of 69 to 78 °C. As to `COc1ccccc1Oc1c(NS(=O)(=O)c2ccc(C(C)(C)C)cc2)nc(SC)nc1OCCOc1ncc(Br)cn1`, the melting point lay within 117 to 121 °C.

`O=C(Nc1c([N+](=O)[O-])ccc2c3c(oc12)CCCC3)c1c(Cl)cccc1Cl`: the melting point fell in the range of 246 to 248 °C. The result for `CCOC(=O)c1c(S(N)(=O)=O)nc2sccn12` reads 164 to 166 °C. Regarding `CON1CCC2(CC1)SC(=O)C(c1c(C)cc(C)cc1C)=C2O`, the melting point fell in the range of 67 to 71 °C.

These data come from a melting point compilation (Tetko et al.; mined from patent text by program, amines drawn as free bases though some values may be those of a salt).
